Where only a bound is given, the exact number is not on record here.

Here are results for four compounds from US20250257075A1, “MACROCYCLIC INHIBITORS OF KRAS FOR THE TREATMENT OF CANCER” (Hoffmann-La Roche Inc., priority 2022, published 2025).

Assay [1] has as its target T1, KRAS G12C-BRAF complex (Homo sapiens, UniProt P01116+P62937, G12C).
T1 construct: expressed in transfected cells
Briefly: KRAS-BRAF with CYPA (500 nM) interaction assay (TR-FRET), G12C. Format: biochemical. The settings on record: 3 hours. The method, then:
(§1) Kras-BRAF with CYPA (500 nM) Interaction Assay In this example, TR-FRET was also used to measure the compound or compound-CYPA dependent disruption of the KRAS G12C-BRAF complex. This protocol was also used to measure disruption of KRAS G12D or KRAS G12V binding to BRAF by a compound of the invention, respectively. […] TR-FRET signal was read on a […] microplate reader (Ex320 nm, Em 665/615 nm). Compounds that facilitate disruption of the KRAS-BRAF complex were identified as those eliciting a decrease in the TR-FRET ratio relative to DMSO control wells.
In general terms: In TR-FRET formats the signal depends on donor and acceptor labels being close together.

Assay [2] concerns the target T1, KRAS G12C-BRAF complex. Put plainly: KRAS G12C-BRAF NanoBit assay in HEK293 cells. To be noted: HEK293 stable cell pool, 3 hours of incubation. Format: cell-based. The method, then: This assay is to measure the ability of tested compounds in disruption of the KRAS G12C-BRAF complex at the cellular level, we established the NanoBit cellular assay in mammalian HEK293 (ATCC) cells. HEK293 cells were grown and maintained using DMEM medium (Thermo Fisher Scientific) with 10% fetal bovine serum and 1% penicillin/streptomycin. Both KRAS G12C and BRAF RBD were cloned into the NanoBit vectors ([…] vectors system, Promega) with the orientations SmBit-KRAS G12C and BRAF RBD-LgBit, respectively, and co-transfected into HEK293 cells. Cells were then selected with 100 μg/mL Hygromycin B (10687010, Thermo Fisher) and Blasticidin (5 μg/mL) for 4 weeks to get the stable cell pool. On the day of the assay, 75 nL of compound solution was presented in a 384-well assay plate as a 16-point 3-fold dilution starting from a final concentration of 30 μM in DMSO. Then cells were seeded at 10,000 cells/25 μL/well in a 384-well plate. After 3 hours of incubation, 6 μL of volume of Nano-Glo® Live Cell Substrate (Promega) was added into each well. Monitor luminescence using ultra384 model in Envision at 20 minutes. Compounds that facilitate disruption of the KRAS G12C-BRAF RBD complex were identified as those eliciting a decrease of luminescence relative to DMSO control wells.

In assay [3] the test system is phosphorylation of ERK, KRAS G12V in SW620. Briefly: pERK inhibition assay, G12V. Format: cell-based, human. The settings on record: Homo sapiens, SW-620; SW620, 4 hours of incubation. As to the method: (§2) This assay is to measure the ability of test compounds in inhibiting the phosphorylation of ERK, the downstream signaling of KRAS G12C in NCI-H358 cells, KRAS G12D in AGS cells, and KRAS G12V in SW620. NCI-H358 (ATCC-CRL5807) cells, AGS (ATCC-CRL-1739) cells, SW620 (ATCC-CCL-227) cells were all grown and maintained using RPMI-1640 medium (Thermo Fisher Scientific) with 10% fetal bovine serum and 1% penicillin/streptomycin. On the day prior to compound addition, cells were plated in tissue culture-treated 96 well plates (Corning-3699) at a density of 30,000 cell/well, 20,000 cell/well, 30,000 cell/well for NCI-H358, AGS and SW620 respectively, and allowed for attachment overnight. Diluted compounds were then added in a final concentration of 0.5% DMSO. After 4 hours of incubation, the medium was removed, 100 μL of 4% formaldehyde was added, and the assay plates were incubated at room temperature for 20 minutes. The plates were then washed once with phosphate buffered saline (PBS), and permeabilized with 100 μL of chilled methanol for 10 minutes. Non-specific antibody binding to the plates was blocked using 50 μL 1×BSA blocking buffer (Thermo-37520, 10-fold dilution by Phosphate-Buffered Saline Tween (PBST) for at least 1 hour at room temperature.
(§3) The amount of phosphor-ERK was determined using an antibody specific for phosphorylated form of ERK. Primary antibody (pERK, CST-4370, Cell Signaling Technology) was diluted 1:300 in blocking buffer, with 50 μL aliquoted to each well, and incubated overnight at 4° C. Cells was washed five times for 5 minutes with PBST. Secondary antibody (HRP-linked anti-rabbit IgG, CST-7074, Cell Signaling Technology) was diluted 1:1000 in blocking buffer, and 50 μL was added to each well and incubated 1-2 hrs at room temperature. Cells was washed 5 times for 5 minutes with PBST, 100 μL TMB ELISA substrate (abcam-ab171523) were added and gently shake for 20 minutes. 50 μL stop solution (abcam-ab171529) were added, and then read the signal (OD450) by EnVision.
(§4) IC50 was determined by fitting a 4-parameter sigmoidal concentration response model.

For another assay, the system named is SW620 cells (KRAS G12V). Put plainly: Cell viability assay, G12V. Format: cell-based, human. To be noted: Homo sapiens, SW-620; SW620, 72 hrs, Cell Counting Kit-8. The method, then:
(§5) The purpose of this cellular assay was to determine the effects of test compounds on the proliferation of human cancer cell lines NCI-H358 (ATCC-CRL5807) cells, AGS (ATCC-CRL-1739) cells, SW620 (ATCC-CCL-227) over a 3-day treatment period by quantifying the amount of NADPH present at endpoint using Cell Counting Kit-8.
(§6) Cells were seeded at 5,000 cells/well (NCI-H358), 2,000 cells/well (AGS) 2,000 cells/well (SW620) in 96-well assay plates (Corning-3699) and incubated overnight. On the day of the assay, diluted compounds were then added in a final concentration of 0.5% DMSO. After 72 hrs incubation, a tenth of the volume of cell counting kit 8 (Dnjindo-CK04) was added into each well. Read the signal (OD450 minus OD650) using EnVision after 2 hrs incubation. IC50 was determined by fitting a 4-parameter sigmoidal concentration response model.
For orientation: Formazan colour is commonly taken as a measure of viable cells.

Another assay deals with AGS cells (KRAS G12D). Briefly: Cell viability assay, G12D. Format: cell-based, human. The settings on record: Homo sapiens, 72 hrs, Cell Counting Kit-8. As to the method: as §5, §6
Assay [4] has as its target KRAS G12V binding to BRAF (Homo sapiens, UniProt P01116+P62937, G12V). Put plainly: KRAS-BRAF with CYPA (500 nM) interaction assay (TR-FRET), G12V. In kind it is biochemical. To be noted: 3 hours. The method, then: as §1
The subject of assay [5] is NCI-H358 cells (KRAS G12C). Put plainly: Cell viability assay, G12C. In kind it is cell-based, human. To be noted: Homo sapiens; NCI-H358, 72 hrs, Cell Counting Kit-8. The method, then: as §5, §6
Assay [6] relates to phosphorylation of ERK, KRAS G12D in AGS cells. Briefly: pERK inhibition assay, G12D. In kind it is cell-based, human. To be noted: Homo sapiens, 4 hours of incubation. The method, then: as §2, §3, §4
Assay [7] addresses KRAS G12D binding to BRAF (Homo sapiens, UniProt P01116+P62937, G12D). Put plainly: KRAS-BRAF with CYPA (500 nM) interaction assay (TR-FRET), G12D. Format: biochemical. The settings on record: 3 hours. As to the method:
as §1

The subject of assay [8] is phosphorylation of ERK, KRAS G12C in NCI-H358 cells. Put plainly: pERK inhibition assay, G12C. In kind it is cell-based, human. The settings on record: Homo sapiens; NCI-H358, 4 hours of incubation. As to the method: as §2, §3, §4

T1 sequence (P01116 1-188 isoform P01116-2 G12C): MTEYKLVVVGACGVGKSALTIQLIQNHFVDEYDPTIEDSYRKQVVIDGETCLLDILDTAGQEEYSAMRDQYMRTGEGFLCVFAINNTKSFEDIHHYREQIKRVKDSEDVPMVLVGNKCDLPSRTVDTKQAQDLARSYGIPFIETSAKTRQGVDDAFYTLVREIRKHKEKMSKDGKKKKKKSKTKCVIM
T1 sequence (P62937 whole entry): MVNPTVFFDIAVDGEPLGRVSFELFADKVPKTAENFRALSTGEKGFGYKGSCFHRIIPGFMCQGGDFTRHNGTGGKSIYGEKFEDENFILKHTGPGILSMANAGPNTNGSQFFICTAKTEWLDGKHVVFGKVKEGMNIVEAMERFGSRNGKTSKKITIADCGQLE
KRAS G12D binding to BRAF, sequence (P01116 1-188 isoform P01116-2 G12D): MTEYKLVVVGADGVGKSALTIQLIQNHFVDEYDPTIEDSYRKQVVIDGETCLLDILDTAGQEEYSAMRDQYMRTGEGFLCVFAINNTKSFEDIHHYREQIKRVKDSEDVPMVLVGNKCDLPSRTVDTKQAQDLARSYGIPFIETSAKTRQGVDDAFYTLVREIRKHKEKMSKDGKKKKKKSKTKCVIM
KRAS G12D binding to BRAF, sequence (P62937 whole entry): as the sequence (P62937 whole entry) above
KRAS G12V binding to BRAF, sequence (P01116 1-188 isoform P01116-2 G12V): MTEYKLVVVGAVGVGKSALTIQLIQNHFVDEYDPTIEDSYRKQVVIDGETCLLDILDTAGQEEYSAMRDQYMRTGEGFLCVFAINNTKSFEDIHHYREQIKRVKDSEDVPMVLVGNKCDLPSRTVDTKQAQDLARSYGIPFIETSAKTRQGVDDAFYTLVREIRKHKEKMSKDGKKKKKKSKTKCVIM
KRAS G12V binding to BRAF, sequence (P62937 whole entry): as the sequence (P62937 whole entry) above

Turning to `CO[C@@H](C)c1ncc(N2CCN(C)CC2)cc1-c1c2c3cc(c(F)cc3n1CC(F)(F)F)-c1csc(n1)C[C@H](NC(=O)[C@H](C(C)C)N(C)C(=O)[C@H]1C[C@H](C#CC(F)(F)F)C1)C(=O)N1CCC[C@H](N1)C(=O)OCC(C)(C)C2` (atropisomer, axis not shown; (M)) [Example 1, trans-N-[(1S)-1-[[(7S,13S)-24-fluoro-(20M)-20-[2-[(1S)-1-methoxyethyl]-5-(4-methylpiperazin-1-yl)-3-pyridyl]-17,17-dimethyl-8,14-dioxo-21-(2,2,2-trifluoroethyl)-15-oxa-4-thia-9,21,27,28-tetrazapentacyclo[17.5.2.1^2,5.1^9,13.0^22,26]octacosa-1(25),2,5(28),19,22(26),23-hexaen-7-yl]carbamoyl]-2-methyl-propyl]-N-methyl-3-(3,3,3-trifluoroprop-1-ynyl)cyclobutanecarboxamide], the IC50 (as a rule, the concentration that gives 50% inhibition) against KRAS G12C-BRAF complex [1] was 3.35 µM; at KRAS G12C-BRAF complex [2] it was 0.081 µM; in assay [3], 0.063 µM; in the assay with SW620 cells (KRAS G12V), 0.04 µM; with AGS cells (KRAS G12D), more than 10 µM; in assay [4] it was more than 10 µM. The IC50 in assay [5] was 0.027 µM; in [6], 1.1 µM; in assay [7], more than 10 µM; in assay [8], 0.035 µM.

For the compound `CO[C@@H](C)c1ncc(N2CCN(C)CC2)cc1-c1c2c3cc(c(F)cc3n1CC(F)(F)F)-c1csc(n1)C[C@H](NC(=O)[C@H](C(C)C)N(C)C(=O)c1ccc(C#CC(F)(F)F)cc1)C(=O)N1CCC[C@H](N1)C(=O)OCC(C)(C)C2` (atropisomer, axis not shown; (M)) [Example 4, N-[(1S)-1-[[(7S,13S)-24-fluoro-(20M)-20-[2-[(1S)-1-methoxyethyl]-5-(4-methylpiperazin-1-yl)-3-pyridyl]-17,17-dimethyl-8,14-dioxo-21-(2,2,2-trifluoroethyl)-15-oxa-4-thia-9,21,27,28-tetrazapentacyclo[17.5.2.1^2,5.1^9,13.0^22,26]octacosa-1(25),2,5(28),19,22(26),23-hexaen-7-yl]carbamoyl]-2-methyl-propyl]-N-methyl-4-(3,3,3-trifluoroprop-1-ynyl)benzamide], the IC50 on KRAS G12C-BRAF complex [1] was 0.43 µM; on KRAS G12C-BRAF complex [2] it was 0.219 µM; in assay [3], 0.006 µM; in the assay with SW620 cells (KRAS G12V), 0.041 µM; in the assay on AGS cells (KRAS G12D), 0.781 µM; in [4] it was more than 10 µM. Further, the IC50 in assay [5] came out at 0.123 µM; in assay [6], 0.509 µM; in assay [7], 0.142 µM; in assay [8], 0.063 µM.

As to `CO[C@@H](C)c1ncc(N2CCN(CC(F)(F)F)CC2)cc1-c1c2c3cc(c(F)cc3n1CC(F)(F)F)-c1csc(n1)C[C@H](NC(=O)[C@H](C(C)C)N(C)C(=O)[C@H]1C[C@@H](C#CC(F)(F)F)C1)C(=O)N1CCC[C@H](N1)C(=O)OCC(C)(C)C2` (atropisomer, axis not shown; (M)) [Example 7, cis-N-[(1S)-1-[[(7S,13S)-24-fluoro-(20M)-20-[2-[(1S)-1-methoxyethyl]-5-[4-(2,2,2-trifluoroethyl)piperazin-1-yl]-3-pyridyl]-17,17-dimethyl-8,14-dioxo-21-(2,2,2-trifluoroethyl)-15-oxa-4-thia-9,21,27,28-tetrazapentacyclo[17.5.2.1^2,5.1^9,13.0^22,26]octacosa-1(25),2,5(28),19,22(26),23-hexaen-7-yl]carbamoyl]-2-methyl-propyl]-N-methyl-3-(3,3,3-trifluoroprop-1-ynyl)cyclobutanecarboxamide], the IC50 against KRAS G12C-BRAF complex [1] is more than 10 µM; on KRAS G12C-BRAF complex [2], 0.335 µM; in [3], 0.099 µM; with SW620 cells (KRAS G12V), more than 5 µM; in the assay with AGS cells (KRAS G12D) it was more than 5 µM; in [4] it was more than 10 µM. The results for the half-inhibitory concentration (IC50) in [5], in assay [7] and in [8] were 0.023 µM, more than 10 µM and 1.1 µM, respectively.

In the case of `CO[C@@H](C)c1ncc(N2CCN(C)CC2)cc1-c1c2c3cc(c(F)cc3n1CC(F)(F)F)-c1csc(n1)C[C@H](NC(=O)[C@H](C(C)C)N(C)C(=O)[C@H]1CC[C@H](C#CC(F)(F)F)CC1)C(=O)N1CCC[C@H](N1)C(=O)OCC(C)(C)C2` (atropisomer, axis not shown; (M)) [Example 9, trans-N-[(1S)-1-[[(7S,13S)-24-fluoro-(20M)-20-[2-[(1S)-1-methoxyethyl]-5-(4-methylpiperazin-1-yl)-3-pyridyl]-17,17-dimethyl-8,14-dioxo-21-(2,2,2-trifluoroethyl)-15-oxa-4-thia-9,21,27,28-tetrazapentacyclo[17.5.2.1^2,5.1^9,13.0^22,26]octacosa-1(25),2,5(28),19,22(26),23-hexaen-7-yl]carbamoyl]-2-methyl-propyl]-N-methyl-4-(3,3,3-trifluoroprop-1-ynyl)cyclohexanecarboxamide], the half-inhibitory concentration (IC50) was 0.819 µM at KRAS G12C-BRAF complex [1]; 0.418 µM on KRAS G12C-BRAF complex [2]; 0.498 µM in [3]; more than 5 µM in the assay with SW620 cells (KRAS G12V); more than 5 µM in the assay on AGS cells (KRAS G12D); 1.98 µM in [4]. Also, the IC50 in assay [5] turned out to be 0.436 µM; in [6], 1.77 µM; in [7], 3.01 µM; in assay [8], 0.292 µM.
